The target in one series is T1, human mGlu3 (Homo sapiens, UniProt Q14832).
T1 construct: expressed in transfected cells; host or cells: HEK293
Briefly: [3H]-compound A displacement binding, human mGlu3 HEK293 membranes. The following applies: Glu3 HEK293, 25 nM [3H]-compound A. The protocol: (§1) For [^3H]-compound A (a NAM compound, selective for mGlu2/3 (˜20 fold selective for 2 over 3) vs other mGluRs) binding, membranes from human mGlu2 and mGlu3 HEK293 cells, and also rat cortical membranes, were used. After thawing, membranes were homogenized using an Ultra Turrax homogenizer and suspended in ice-cold binding buffer containing 50 mM Tris-HCl (pH 7.4), 10 mM MgCl2, 2 mM CaCl2. Displacement studies were done using 6 nM of radioligand, except for human mGlu3 membranes where 25 nM was used. Assay mixtures were incubated for 60 min at RT in a volume of 0.5 ml containing […] or 75 μg membrane protein of human mGlu2, human mGlu3 or rat cortex, respectively. Non-specific binding was estimated in the presence of […] compound B (a NAM with IC50˜10 nM against hmGlu2 and IC50˜200 nM against hmGlu3). Filtration was performed using Whatman GF/C filter sheets pre-soaked in 0.1% PEI and a Brandell harvester 96.
(§2) Filters from filters sheets were punched into vials. After the addition of scintillation liquid, radioactivity on the filters was counted in a Liquid Scintillation Analyzer from Perkin Elmer.
(§3) Radioligand competition binding data were calculated as percentage of total binding measured in the absence of test compound. Inhibition curves, plotting percentage of total binding versus the log concentration of the test compound, were generated using the Lexis software. Sigmoid inhibition curves were analyzed using non-linear regression analysis.

The test system of the next series is mGluR2/3. Briefly: microPET scan, baseline and after compound A pretreatment. It counts as in vivo. As to conditions: SD rats. As for the experimental part:
Data were acquired in a 128×128×95 matrix with a pixel width of 0.475 mm and a slice thickness of 0.796 mm. During PET imaging, rats were kept under gas anesthesia (2.5% isoflurane in oxygen at a flow rate of 1 l/min), and their body temperature was maintained between 36.5 and 37° C. using a heating pad. PET data were analyzed using Pmod software version 3.2 (Pmod, Zurich Switzerland).
(§4) Sprague-Dawley rats obtained from Harlan (the Netherlands), were housed in groups of four to six per cage until treatment. They were kept at a constant temperature of 21° C. and at a 12-h light/dark cycle, in which lights were switched on at 8:00 a.m. Animals had unrestricted access to food (Teklad Global 16% Protein Rodent Diet, Harlan, Madison, Wis., USA) and water. All animal experiments were performed in compliance with Belgium laws on animal experimentation and after approval by the local animal ethics committee.
All pretreatment solutions were 1 mg/mL solutions in 20% β-cyclodextrine in saline with a pH ranging between 6 and 8, and sterile filtered over a Millex GV filter prior to use.
For the baseline scan, 36-43 MBq of [^18F]-1 was injected in 3 SD rats weighing 229-251 g in the tail vein, and scanned simultaneously during a 90 min dynamic PET scan. For the pretreatment scan using compound A (a NAM compound, selective for mGlu2/3 (˜20 fold selective for 2 over 3) vs other mGluRs), the same animals were injected with 10 mg/kg compound A s.c. 60 minutes prior to injection of 38-37 MBq [^18F]-1 in the tail vein, and scanned simultaneously during a 90 minutes dynamic PET scan.
For the baseline scan, 39-49 MBq of [^18F]-2 was injected in 3 SD rats weighing 301-310 g in a tail vein, and scanned simultaneously during a 90-min dynamic PET scan. For the pretreatment scan using compound A, the same animals were injected with 10 mg/kg compound A s.c. 60 min prior to injection of 46-50 MBq [^18F]-2 in the tail vein, and scanned simultaneously during a 90 min dynamic PET scan.

In the next series the target is T2, human mGlu2 (Homo sapiens, UniProt Q14416).
T2 construct: expressed in transfected cells; host or cells: HEK293
In words: [3H]-compound A displacement binding, human mGlu2 HEK293 membranes. The following applies: Glu2 HEK293, 6 nM [3H]-compound A. The protocol:
as §1, §2, §3

The nature of series [1]: Ex-vivo biodistribution in SD rats. Also on record: species or system Sprague Dawley rats. As for the experimental part: as §4
The biodistribution of [^18F]-1 was determined at 2, 10, 30 and 60 min, after injection in Sprague Dawley (SD) rats (n=3 per time point) while for [^18F]-2 the 30 min time point was not performed. Rats were injected intravenously with 0.7-1.1 MBq via a tail vein and euthanized at the time points indicated above, under isoflurane anesthesia. All tissues were dissected, weighed and counted for radioactivity in a gamma counter.
The biodistribution of [^18F]-1 was determined at 2, 10, 30 and 60 min, after injection in Sprague Dawley rats (n=3 per time point). Rats were injected intravenously with 0.7-1.1 MBq via a tail vein and euthanized at the time points indicated above, under isoflurane anesthesia. All tissues were dissected, weighed and counted for radioactivity in a gamma counter.

T2 sequence (Q14416 19-872): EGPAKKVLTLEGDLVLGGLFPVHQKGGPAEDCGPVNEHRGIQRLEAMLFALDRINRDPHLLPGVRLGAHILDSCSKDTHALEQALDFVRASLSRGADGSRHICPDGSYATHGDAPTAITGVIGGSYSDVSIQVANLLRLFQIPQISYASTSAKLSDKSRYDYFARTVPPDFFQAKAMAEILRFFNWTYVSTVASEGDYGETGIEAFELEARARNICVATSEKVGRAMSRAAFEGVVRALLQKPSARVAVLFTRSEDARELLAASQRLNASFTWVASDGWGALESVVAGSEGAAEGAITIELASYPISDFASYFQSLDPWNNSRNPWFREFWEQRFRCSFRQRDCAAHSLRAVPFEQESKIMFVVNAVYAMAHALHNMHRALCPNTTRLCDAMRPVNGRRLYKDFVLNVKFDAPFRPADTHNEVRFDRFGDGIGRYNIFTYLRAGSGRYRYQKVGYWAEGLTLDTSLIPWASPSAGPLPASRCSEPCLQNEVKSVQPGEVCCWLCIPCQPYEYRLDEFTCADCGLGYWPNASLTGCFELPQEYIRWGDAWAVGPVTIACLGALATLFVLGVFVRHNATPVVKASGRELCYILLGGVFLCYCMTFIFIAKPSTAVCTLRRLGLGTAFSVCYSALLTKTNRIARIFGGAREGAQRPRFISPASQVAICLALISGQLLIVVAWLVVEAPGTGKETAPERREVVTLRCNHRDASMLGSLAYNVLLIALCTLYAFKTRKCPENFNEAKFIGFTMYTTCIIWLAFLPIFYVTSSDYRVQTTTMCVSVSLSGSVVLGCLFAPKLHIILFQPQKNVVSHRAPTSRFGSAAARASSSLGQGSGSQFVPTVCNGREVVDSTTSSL
T1 sequence (Q14832 23-879): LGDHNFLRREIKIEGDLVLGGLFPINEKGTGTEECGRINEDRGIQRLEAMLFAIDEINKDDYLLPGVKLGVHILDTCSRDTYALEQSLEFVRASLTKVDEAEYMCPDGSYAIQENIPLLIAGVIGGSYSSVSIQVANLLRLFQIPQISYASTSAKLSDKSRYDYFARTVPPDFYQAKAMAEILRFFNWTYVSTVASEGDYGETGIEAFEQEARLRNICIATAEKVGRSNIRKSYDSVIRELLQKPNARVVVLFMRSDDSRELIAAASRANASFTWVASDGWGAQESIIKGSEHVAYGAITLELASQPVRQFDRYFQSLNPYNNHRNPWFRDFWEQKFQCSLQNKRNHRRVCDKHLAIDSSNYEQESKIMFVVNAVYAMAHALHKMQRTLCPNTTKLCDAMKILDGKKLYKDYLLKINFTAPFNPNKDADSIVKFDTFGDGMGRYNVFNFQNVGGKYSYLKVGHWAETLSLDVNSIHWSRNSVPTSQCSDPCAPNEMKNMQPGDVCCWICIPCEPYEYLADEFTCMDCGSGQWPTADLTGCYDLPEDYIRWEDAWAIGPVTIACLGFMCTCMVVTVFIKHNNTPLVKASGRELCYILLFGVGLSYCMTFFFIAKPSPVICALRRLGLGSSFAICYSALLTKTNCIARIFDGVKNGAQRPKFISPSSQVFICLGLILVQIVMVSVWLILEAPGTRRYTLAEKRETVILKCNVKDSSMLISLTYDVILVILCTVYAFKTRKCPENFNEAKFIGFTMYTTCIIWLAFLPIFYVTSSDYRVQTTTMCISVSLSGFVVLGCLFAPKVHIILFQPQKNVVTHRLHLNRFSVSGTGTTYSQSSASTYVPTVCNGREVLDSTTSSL

What is called IC50 is the concentration needed to halve the response being measured. Low values mean greater potency, high ones weaker potency. For the compound `C[C@H]1CN(c2ccc(C(F)(F)F)c(C[18F])c2)C(=O)c2c(C#Cc3ccc(N)nc3)cnn21` [Compound 2], the “Eff Curve” value on human mGlu3 stood at 107.5; at human mGlu2, 94. Further, the IC50 at human mGlu3 was 4.37 nM; at human mGlu2 it was 2.82 nM. In the series with mGluR2/3 (10 mg/kg compound A s.c. 60 min before tracer), the “Brain uptake after pretreatment with compound A” value was “peak uptake was higher after pretreatment, but generally showed a faster washout”. The “Brain uptake in PET scan, in words” value in the series on mGluR2/3 (90 min dynamic PET scan) is on record as “high brain uptake”. Further, the “mGluR2/3 specificity of binding in vivo” value in the series on mGluR2/3 (PET, baseline vs compound A pretreatment) is “mGluR2/3 specific binding”. Also, the “Biodistribution, mean SUV” value came out at 0.96 SUV in series [1] (blood, 2 min after i.v. injection); 0.92 SUV in series [1] (blood, 10 min after i.v. injection); 0.67 SUV in series [1] (blood, 60 min after i.v. injection); 0.53 SUV in series [1] (bone, 2 min after i.v. injection); 0.62 SUV in series [1] (bone, 10 min after i.v. injection); 2.77 SUV in series [1] (bone, 60 min after i.v. injection). Besides, the “Biodistribution, mean SUV” value in series [1] (cerebellum, 2 min after i.v. injection) is reported as 1.53 SUV; in series [1] (cerebellum, 10 min after i.v. injection), 1.23 SUV; in series [1] (cerebellum, 60 min after i.v. injection), 0.73 SUV; in series [1] (cerebrum + cerebellum, 2 min after i.v. injection) it was 1.44 SUV; in series [1] (cerebrum + cerebellum, 10 min after i.v. injection), 1.34 SUV; in series [1] (cerebrum + cerebellum, 60 min after i.v. injection) it was 0.89 SUV. Also, the “Biodistribution, mean SUV” value amounted to 2.50 SUV in series [1] (cortex, 2 min after i.v. injection); 2.51 SUV in series [1] (cortex, 10 min after i.v. injection); 1.56 SUV in series [1] (cortex, 60 min after i.v. injection); 2.42 SUV in series [1] (heart, 2 min after i.v. injection); 1.67 SUV in series [1] (heart, 10 min after i.v. injection); 0.82 SUV in series [1] (heart, 60 min after i.v. injection). Further, the “Biodistribution, mean SUV” value in series [1] (hippocampus, 2 min after i.v. injection) came to 1.03 SUV; in series [1] (hippocampus, 10 min after i.v. injection), 1.17 SUV; in series [1] (hippocampus, 60 min after i.v. injection), 0.74 SUV; in series [1] (kidneys, 2 min after i.v. injection), 4.05 SUV; in series [1] (kidneys, 10 min after i.v. injection), 2.73 SUV; in series [1] (kidneys, 60 min after i.v. injection), 1.81 SUV. Further, the “Biodistribution, mean SUV” value turned out to be 8.44 SUV in series [1] (liver, 2 min after i.v. injection); 6.22 SUV in series [1] (liver, 10 min after i.v. injection); 2.83 SUV in series [1] (liver, 60 min after i.v. injection); 2.66 SUV in series [1] (lungs, 2 min after i.v. injection); 1.52 SUV in series [1] (lungs, 10 min after i.v. injection); 1.02 SUV in series [1] (lungs, 60 min after i.v. injection). In addition, the “Biodistribution, mean SUV” value in series [1] (muscle, 2 min after i.v. injection) stood at 0.88 SUV; in series [1] (muscle, 10 min after i.v. injection) it was 0.82 SUV; in series [1] (muscle, 60 min after i.v. injection) it was 0.59 SUV; in series [1] (pancreas, 2 min after i.v. injection), 3.29 SUV; in series [1] (pancreas, 10 min after i.v. injection) it was 2.06 SUV; in series [1] (pancreas, 60 min after i.v. injection), 1.27 SUV. In addition, the “Biodistribution, mean SUV” value stood at 1.04 SUV in series [1] (pons, 2 min after i.v. injection); 0.74 SUV in series [1] (pons, 10 min after i.v. injection); 0.40 SUV in series [1] (pons, 60 min after i.v. injection); 1.45 SUV in series [1] (rest of cerebrum, 2 min after i.v. injection); 1.39 SUV in series [1] (rest of cerebrum, 10 min after i.v. injection); 0.97 SUV in series [1] (rest of cerebrum, 60 min after i.v. injection). In addition, the “Biodistribution, mean SUV” value in series [1] (spleen, 2 min after i.v. injection) stood at 2.53 SUV; in series [1] (spleen, 10 min after i.v. injection), 1.36 SUV; in series [1] (spleen, 60 min after i.v. injection) it was 0.87 SUV; in series [1] (striatum, 2 min after i.v. injection), 1.51 SUV; in series [1] (striatum, 10 min after i.v. injection), 1.61 SUV; in series [1] (striatum, 60 min after i.v. injection) it was 1.30 SUV. The “Biodistribution, mean SUV” value in series [1] (whole cerebrum, 2 min after i.v. injection) worked out at 1.39 SUV; in series [1] (whole cerebrum, 10 min after i.v. injection), 1.34 SUV; in series [1] (whole cerebrum, 60 min after i.v. injection) it was 0.90 SUV. In addition, the “Brain uptake, in words” value in series [1] (ex-vivo biodistribution) is “medium brain uptake”. In series [1] (ex-vivo biodistribution), the “Defluorination judged from bone uptake over time” value was “massive defluorination”. Also, the “Peripheral uptake, in words” value in series [1] (ex-vivo biodistribution) was “high uptake in the liver”.
What is called melting point is the temperature, or range, at which the solid turns liquid. Turning to `C[C@H]1CN(c2ccc(C(F)(F)F)cc2)C(=O)c2c(C#Cc3cnc(N)cc3CO)cnn21` [Compound P-1], the melting point is 211.51 °C.
`C[C@H]1CN(c2ccc(C(F)(F)F)c(CO)c2)C(=O)c2c(C#Cc3ccc(N)nc3)cnn21` [Compound P-3] gave a melting point of 153.23 °C.
Regarding `C[C@H]1CN(c2ccc(C(F)(F)F)cc2)C(=O)c2c(C#Cc3cnc(N)cc3CF)cnn21` [[^19F]-1], the melting point worked out at 187.28 °C.

(Values after patent US11033641B2, “Radiolabelled mGluR2/3 pet ligands” (Janssen Pharmaceutica NV, priority 2015, dated 2021).)
